Data reported in US8618074B2, “GPCR enhanced neuroprotection to treat brain injury” (Board of Regents of the University of Texas System, priority 2007, dated 2013).

Legend:
Mouse cortical neurons = assay: Neuronal survival in transwell co-culture with astrocytes under t-buOOH oxidative stress (Hoechst/calcein); type: cell-based
Method: (§1) Primary cultures of astrocytes were prepared as previously published (Lin et al., 2005). C57BL/6 male mice were purchased from the National Institute of Aging and maintained in standard accredited housing conditions at the University of Texas Health Science Center Animal Facility. Animal protocols were approved by our Institutional Animal Care Use Committee. Astrocytes were cultured in DMEM F-12 media (Invitrogen, # 11039-021) supplemented with 2 mM glutamine, nonessential amino acids, 10% fetal calf serum, 100 U/ml penicillin/streptomycin (Cambrex BioScience Walkersville, #17-602E) and 1% fungizone (Invitrogen, #15290-018) at 37° C. in an atmosphere containing 5% CO2. The culture medium was changed every 3-5 days. Confluent cells were gently removed by a trypsin EDTA solution and re-plated on 35 mm glass bottom chambers (Bioptechs #04200415C) prior to imaging experiments 3-4 days later. Cells were maintained in plastic culture flasks until the final re-seeding of cells onto a glass bottom chamber and were passed up to 3 times for astrocyte only experiments. For co-culture experiments with neurons, primary astrocytes were plated directly onto corning transwell-clear permeable supports, which physically separates the two cell-types by ˜1 mm (# 07-200-170, Fisher scientific). Astrocytes were cultured in transwells until they were ˜70% confluent. Mouse cortical neurons (Cambrex Bio Science Walkersville Inc., # M-CX-300) were then cultured onto 6 well mat-tek glass bottom plates and maintained in Neurobasal Medium (Invitrogen, # 21103-049), 2 mM L-Glutamine (Cambrex BioScience Walkersville, #17-605E), 100 U/ml penicillin/streptomycin (Cambrex BioScience Walkersville, #17-602E) and B-27 with (Invitrogen, #17504-044) and without antioxidants (Invitrogen, #10889-038), which controls glia contamination to less than 0.5%. The transwell supports with cultured astrocytes were placed in the neuron seeded glass bottom chambers for four days before imaging and both cell types were then maintained in neuronal media. For neuron only experiments, the astrocytes on the transwell supports were removed prior to treatments and imaging.
(§2) Sensitivity of neurons to oxidative stress was assessed by treating cultures with 100 μM tert-butyl hydrogen peroxide (t-BuOOH, Sigma, #B-2633) for 3 hours. Neurons were then stained with Hoechst 33342 (10 μg/ml, Molecular Probes, #H-3570) to label all cell nuclei and calcein AM (2 μM, #C3100, Molecular Probes, #C3100). […] Calcein fluorescence is only observed in live cells that have maintained their plasma membrane integrity. Images were acquired on an inverted Nikon TE300 microscope with a Hamamatsu ORCAER camera and Open lab software (Improvision).
To determine whether P2Y-R enhanced mitochondrial metabolism in astrocytes affected neuronal resistance to oxidative stress, we prepared co-cultures of neurons and astrocytes using corning transwell-clear permeable supports, which physically separates the two cell-types by ˜1 mm (# 07-200-170, Fisher scientific). Primary cultures of astrocytes were directly prepared in transwell supports until they were ˜70% confluent. Mouse cortical neurons were then cultured onto glass bottom mattek plates and maintained in B-27/Neurobasal Medium to control glia contamination to less than 0.5% (Invitrogen). After four days, co-cultures were treated with t-buOOH (100 μM) for 4 hours with and without pre-stimulation of ATP (2 μM, 10 minutes). Cells were then stained with the DNA intercalating dye Hoechst 33342 (10 μg/ml, Molecular Probes, #H-3570) and calcein AM (2 μM, Molecular Probes, #C3100). […] We then tested the neuroprotective affects of isoform specific purinergic ligands 2-MeSADP(P2Y1-R) and UTP(P2Y2-R). FIG. 6A depicts histogram plots of the percentage of neurons alive when cocultured with young or old astrocytes. FIG. 6B depicts histogram plots of the percentage of neurons alive pretreated with either 2-MeSADP (2 μM) or UTP (50 μM) for 10 min. […]

[1] = test system: Neurons in the absence of astrocytes; assay: Neuronal survival under t-buOOH in the absence of astrocytes (transwells removed before ligand treatment); type: cell-based, mouse
Method: as §1, §2
Activation of neuronal P2X receptors has been reported neurotoxic. Consequently, we further examined the affects of P2Y-R activation on neuronal survival in the absence of astrocytes. Neurons were co-cultured with astrocytes in transwell dishes that were removed from the cultures just prior to treating the neurons with purinergic ligands. Neurons in the absence of astrocytes were then exposed to t-buOOH (100 μM, 4.5 hours with normal B-27, 3 hours with antioxidant-free B-27) and cell viability was assessed by the ability of neurons to retain calcien. […] The same results were found for neurons initially co-cultured with old astrocytes. […]

astrocytes = assay: Intracellular ATP determination (luciferin-luciferase); type: cell-based, mouse
Method: Intracellular ATP was measured using a luciferin-luciferase kit (Invitrogen, #22066). Plated astrocytes were trypsinized and washed 3× with PBS buffer (GIBCO #14190). An aliquot of cells was set aside to measure the cell density with a hemocytometer. The cells were then suspended in a lysate buffer (4 mM EDTA and 100 mM Tris, pH 7.75) and immediately heated to 100° C. for 5 minutes to minimize enzymatic changes in ATP levels. The supernatant was collected after a 10,000 g centrifugation for 1 minute and used with the luciferin/luciferase kit according to the manufacturer's instructions. Luminescence was measured with a Synergy™ HT Multi-Detection Microplate Reader (BioTek). ATP levels were normalized by cell density.
Our next approach to investigate the role of mitochondrial metabolism was to directly measure ATP levels in cultures astrocytes using a luciferin-luciferase assay (Invitrogen). Astrocytes were cultured as described above, trypsinized and washed with buffer. The cells were then suspended in a lysate buffer and immediately heated to 100° C. (5 min) to minimize enzymatic changes in ATP levels. After centrifugation, the ATP dependent luminescence of supernatant was measured with a microplate reader (Biotek). FIG. 5C depicts histograms of the direct measurement of intracellular ATP levels relative to untreated cells (control), P2Y-R stimulated (MeADP), then the same measurements in the presence of oligomycin (oligo) or ruthenium 360 (Ru360). We estimated that the resting intracellular ATP concentration in cultured astrocytes was 0.31±0.14 μM ATP/10^4 cells (n=3). […] Finally, we tested whether ruthenium 360 (Ru360; Calbiochem), a polycation that inhibits the electrogenic mitochondrial Ca^2+ uniporter, affected mitochondrial ATP production.

[2] = neurons initially co-cultured with old astrocytes, astrocytes removed, t-buOOH 100 μM
[3] = neurons without astrocytes, normal B-27, t-buOOH 100 μM 4.5 hours

For `Nc1ncnc2c1ncn2[C@@H]1O[C@H](COP(=O)(O)OP(=O)(O)OP(=O)(O)O)[C@@H](O)[C@H]1O` [ATP], which neuronal survival (Mouse cortical neurons; co-cultured with old astrocytes, ATP 2 μM 10 minutes pre-stimulation, t-buOOH 100 μM 4 hours) is on record?
The neuronal survival was 87±2%.

And the neuronal survival (Mouse cortical neurons; co-cultured with young astrocytes, ATP 2 μM 10 minutes pre-stimulation, t-buOOH 100 μM 4 hours)?
Its neuronal survival is 87±2%.

What about the “% neurons alive” value [1, 2] of the same compound?
The value was 49±6%.

And the “% neurons alive” value ([1]; neurons without astrocytes, anti-oxidant-free B-27, t-buOOH 100 μM 3 hours)?
Its value is 18±2%.

What about the “% neurons alive” value [1, 3] of the same compound?
Its value is 56±7%.

How did the “effect on P2Y1-R (2-MeSADP) mediated increases in ATP” value (astrocytes; oligomycin 0.01 μM 30 min pretreatment + 2-MeSADP) turn out when `CC[C@H]1/C=C/C=C/C[C@@H](C)[C@H](O)[C@@](C)(O)C(=O)[C@@H](C)[C@H](O)[C@@H](C)C(=O)[C@@H](C)[C@H](O)[C@@H](C)/C=C/C(=O)O[C@@H]2[C@H](C)[C@H](CC1)O[C@]1(CC[C@H](C)[C@H](C[C@@H](C)O)O1)[C@H]2C` [oligomycin] was run?
Its value is “completely inhibited”.

What about the “resting levels of ATP, % of control” value (astrocytes; oligomycin 0.01 μM, 30 min) of the same compound?
The value was 82.6%±3.2 % of control.

And the neuronal survival (Mouse cortical neurons; anti-oxidant-free B-27, oligomycin 0.01 μM 30 minutes + 2-MeSADP, t-buOOH 3 hours)?
Its neuronal survival is 26±3%.

What about the neuronal survival (Mouse cortical neurons; anti-oxidant-free B-27, oligomycin 0.01 μM 30 minutes, t-buOOH 3 hours) of the same compound?
The neuronal survival was 25±3%.

With `CSc1nc(N)c2ncn([C@@H]3O[C@H](COP(=O)(O)OP(=O)(O)O)[C@@H](O)[C@H]3O)c2n1` [2-MeSADP] as the compound, how does the “intracellular ATP levels” value (astrocytes; 2-MeSADP 2 μM for 10 minutes) read?
The value was 0.39±0.16 μM ATP/10^4 cells.

What about the “% neurons alive (neuronal survival)” value (Mouse cortical neurons; anti-oxidant-free B-27, 2-MeSADP 2 μM 10 minutes, t-buOOH 100 μM 3 hours) of the same compound?
Its value is 43±3%.

What about the “% neurons alive” value (Mouse cortical neurons; co-cultures, 10 min pre-treatment 2-MeSADP 2 μM or UTP 50 μM, 4.5 hours of t-buOOH) of the same compound?
Its value is 70±2%.

And the “% neurons alive” value [1, 2]?
The value was 72±3%.

And the “% neurons alive” value [1, 3]?
The value was 74±3%.
